1 compound from US20240208950A1, “COMPOSITIONS AND METHODS FOR TREATMENT OF CERVICAL AND OVARIAN CANCER” (SOUTH DAKOTA BOARD OF REGENTS, priority 2021, published 2024) can be followed below.

What all share (type): cell-based, human
The subject of assay [1] is SiHa cells. Briefly: Colony formation assay, SiHa. The note with it: SiHa, 2.5, 5 and 7.5 μM. The method, then:
(§1) FIGS. 5A and 5B show representative colony images of CaSki cells (FIG. 5A) and SiHa cells (FIG. 5B) treated with various concentrations of ORM-Br ranging from […]. FIGS. 5C and 5D represent the quantification of colony formation in CaSki cells (FIG. 5C) and SiHa cells (FIG. 5D) treated with various concentrations of ORM-Br ranging from 0 to 7.5 μM.
(§2) To determine the effect of Br-ORM on clonogenic potential of CaSki and SiHa cells, a colony formation assay was performed. In brief, 500 cells were seeded per well in a 6-well plate and allowed to stand for the next three days. The cells were treated with Br-ORM with different concentrations (2.5, 5, and 7.5 μM) for seven days and then followed by normal growth media. […] Colonies were fixed in methanol, stained with haematoxylin, and counted using UVP 810 software.
(§3) FIG. 13. […] Cell viability was assessed by MTS assay. […] Bar graphs indicating quantification of colony formation in CaSki (i), and SiHa (ii) cells of cervical cancer with respect to vehicle control. […] Briefly, cervical cancer cells were treated with Br-ORM (10 μM) for 24 hours and the apoptosis inducing effect of Br-ORM was analyzed by Annexin V staining. […] The equal loading of protein in each lane was determined by probing the blots with β-actin antibody (FIG. 13F). […] Br-ORM arrests cell cycle in G1/S phase as determined by flow cytometry. […]

In assay [2] the test system is CaSki cells. Briefly: Apoptosis analysis by Annexin V staining, CaSki. The note with it: 10 μM, 24 hours. The method, then:
The apoptosis inducing effect of Br-ORM on cervical cells was analyzed by Annexin V-FLUOS staining kit (Roche Diagnostic Corp. Indianapolis, IN, USA). The procedure was followed as described in the vendor's protocol. Briefly, 60% confluent cervical cancer cells (CaSki and SiHa) were treated with Br-ORM (10, 15, and 20 μM) and kept in a CO2 incubator at 37° C. for 24 hours. Control group cells were treated with DMSO as the vehicle. Cells were washed with PBS (1×) and kept in Annexin-V solution for 20 minutes. Images were captured in bright and green field by fluorescent microscope.
(§4) It was observed that Br-ORM exerts potent growth inhibitory effects, so the effect of Br-ORM on apoptosis induction was further examined. Cervical cancer cells were treated with Br-ORM (10 μM) for 24 hours and the apoptosis inducing effect of Br-ORM was analyzed by Annexin V staining and Western blot analysis for cleavage in PARP protein.

Assay [3] deals with cleaved PARP in CaSki cells. Briefly: Western blot for cleavage of PARP, CaSki. The note with it: 24 hours. The method, then:
The effect of Br-ORM on protein expression in cervical cancer cells were determined by Western blot analysis by using specific antibodies.
as §4
FIG. 13. Br-ORM decreases proliferation and colony formation of cervical cancer cells. FIG. 13A. Effect of Br-ORM on cell viability of CaSki cells (i) and SiHa cells (ii). Briefly, cervical cancer cells were seeded (2500) in each well of 96-well plate and after overnight incubation; cells were treated with indicated concentrations of Br-ORM for 24 hours. Cell viability was assessed by MTS assay. […] Bar graphs indicating quantification of colony formation in CaSki (i), and SiHa (ii) cells of cervical cancer with respect to vehicle control. […] Briefly, cervical cancer cells were treated with Br-ORM (10 μM) for 24 hours and the apoptosis inducing effect of Br-ORM was analyzed by Annexin V staining. […] The equal loading of protein in each lane was determined by probing the blots with β-actin antibody (FIG. 13F). […] Br-ORM arrests cell cycle in G1/S phase as determined by flow cytometry. […]
For orientation: A western blot detects proteins with antibodies after separation by electrophoresis.

The subject of assay [4] is CaSki cells. Briefly: Colony formation assay, CaSki. Conditions: CaSki, 2.5, 5 and 7.5 μM. The method, then:
as §1, §2, §3

The test system of assay [5] is SiHa cells. Briefly: Cell cycle analysis by flow cytometry, SiHa. The note with it: 10 and 15 μM. The method, then:
The effect of Br-ORM on cell cycle analysis was performed by flow cytometry as has described in the art. In brief, approximately 70% confluent cervical cancer cells were treated with Br-ORM (10 and 20 μM) for 24 hours. The cells were trypsinized and washed twice with ice-cold PBS (1×). The cell pellets were resuspended in 50 μL of ice cold PBS (1×) and 450 μL of cold methanol. The cells were washed twice with ice cold PBS (1×), suspended in 500 μL PBS, and incubated with 500 μL RNase (20 μg/mL final concentration) at 37° C. for 1 hour. The cells were chilled over ice for 10 minutes and stained with propidium iodide (50 μg/mL final concentration) for 1 hour and analyzed by flow cytometry (BD Accuri C6; Becton Dickinson, Mountain View, CA, USA). Data was analyzed by using Modfit software.
To examine the effect on cell cycle distribution, cervical cancer cells were treated with Br-ORM (10 and 15 μM) and analyzed by flow cytometry (FIG. 13F(i)-(ii)).
(In general: A flow cytometer gives signals particle by particle.)

Take `COc1ccc2c(c1)OC(C)(C)C(c1ccc(Br)cc1)C2c1ccc(OCCN2CCCC2)cc1` (stereo not shown) [ORM-Br]: the “colony formation (clonogenic potential)” value with SiHa cells [1] is “suppresses the clonogenic potential”; in the assay on SiHa cells [1] (listed as Br-ORM), “significantly decreased the number of colonies”; in the assay on CaSki cells [4] it was “suppresses the clonogenic potential”; in the assay on CaSki cells [4] (listed as Br-ORM), “significantly decreased the number of colonies”. Besides, in the assay on CaSki cells [2], the “apoptosis induction (Annexin V staining)” value was “induced apoptosis”. For the same compound, the “protein levels of cleaved PARP” value in assay [3] is reported as “dose dependently enhanced the protein levels of cleaved PARP”. For the same compound, in the assay with SiHa cells [5], the cell cycle distribution entry is “arrested cell cycle progression of CaSki and SiHa cells at G1/S phase”.
